Usually DC50 stands for the concentration at which degradation of the target reaches its halfway point.

The target of one experiment is T1, ER (Homo sapiens, UniProt P03372).
T1 construct: host or cells: T47D and MCF7 human breast cancer cells
T1 sequence (P03372 1-595): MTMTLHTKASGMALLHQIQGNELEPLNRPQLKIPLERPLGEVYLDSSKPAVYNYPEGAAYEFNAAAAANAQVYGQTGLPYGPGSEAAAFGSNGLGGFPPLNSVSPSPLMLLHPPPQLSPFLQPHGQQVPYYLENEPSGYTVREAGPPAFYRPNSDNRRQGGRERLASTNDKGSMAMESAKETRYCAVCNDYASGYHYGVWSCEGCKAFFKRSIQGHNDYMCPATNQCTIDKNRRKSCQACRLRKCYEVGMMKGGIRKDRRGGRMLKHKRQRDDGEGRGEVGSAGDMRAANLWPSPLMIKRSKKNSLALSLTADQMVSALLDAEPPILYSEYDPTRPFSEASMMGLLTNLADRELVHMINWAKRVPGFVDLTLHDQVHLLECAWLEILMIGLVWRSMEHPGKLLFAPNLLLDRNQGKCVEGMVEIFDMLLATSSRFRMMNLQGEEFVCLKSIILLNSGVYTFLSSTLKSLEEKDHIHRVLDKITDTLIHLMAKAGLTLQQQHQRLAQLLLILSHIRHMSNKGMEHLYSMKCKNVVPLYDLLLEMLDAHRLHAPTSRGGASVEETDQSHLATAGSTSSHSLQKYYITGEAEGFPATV
As to the kind of experiment: ER degradation activity, in-cell western blot analysis in T47D cells. The class given is cell-based. As to conditions: 16 hours, Table A does not say which cell line (T47D or MCF7), read-out: Potency (DC50). The method, then:
ER degradation activity was evaluated in the human breast cancer cell line T47D and MCF7 purchased from the American Type Culture Collection (ATCC), Manassas, VA, and maintained and cultured in Dulbecco's Modified Eagle's medium (DMEM) containing 10% fetal bovine serum, 1 unit/ml of penicillin and 1 μg/ml of streptomycin.
The protocol for the in-cell western blot analysis: a. seed cells in black-sided/clear bottom 96- or 384-well plates at 40,000 or 10,000 cells/well, overnight; b. add diluted compounds (final 0.5% DMSO), 16 hours. […] RT 2 h, gentle shaking. Negative control: cells plus secondary antibodies (no primary antibodies); e. wash ×4 with PBS+0.05-0.1% Tween 20, gentel shaking; f. anti-rabbit-680 and anti-mouse-800 (both 1:1000 in LiCor block+0.05% Tween20, RT 1 h, gentle shaking, no light. LI-COR: 0.2% to reduce background; g. wash×4 with PBS+0.05% Tween 20, gental shaking; h. add 100 μL or 25 μL of PBS to each well and read on CLX plate reader. The relative ER percentage in treated cells were obtained by comparing the values of treated wells to those in untreated and DMSO-treated wells as 100%.
For `O=C1CCC(N2C(=O)c3cc4c(cc3C2=O)CN(CC(=O)N2CCC3(CC2)CCN(c2ccc([C@@H]5c6ccc(O)cc6CC[C@@H]5c5ccccc5)nn2)CC3)C4)C(=O)N1` (mixture of isomers) [E 306, Rac-2-(2,6-dioxopiperidin-3-yl)-6-(2-(9-(6-((1S,2S)-6-hydroxy-2-phenyl-1,2,3,4-tetrahydronaphthalen-1-yl)pyridazin-3-yl)-3,9-diazaspiro[5.5]undecan-3-yl)-2-oxoethyl)-6,7-dihydropyrrolo[3,4-f]isoindole-1,3(2H,5H)-dione], the DC50 is > 100 nM.

As to `O=C1CCC(N2C(=O)c3cc4c(cc3C2=O)CN(Cc2ccc(N3CC(Oc5ccc([C@@H]6c7ccc(O)cc7CC[C@@H]6c6ccccc6)cc5)C3)nc2)C4)C(=O)N1` (stereo partly drawn) [E329, 2-(2,6-dioxopiperidin-3-yl)-6-((6-(3-(4-((1R,2S)-6-hydroxy-2-phenyl-1,2,3,4-tetrahydronaphthalen-1-yl)phenoxy)azetidin-1-yl)pyridin-3-yl)methyl)-6,7-dihydropyrrolo[3,4-f]isoindole-1,3(2H,5H)-dione], the DC50 lay within 10 to 100 nM.

For `C[C@@H]1Cc2c([nH]c3ccccc23)[C@@H](c2c(F)cc(N3CCC4(CCN(C(=O)CN5Cc6cc7c(cc6C5)C(=O)N(C5CCC(=O)NC5=O)C7)C4)CC3)cc2F)N1CC(F)F` (stereo partly drawn) [E 64, 3-(6-(2-(8-(4-((1R,3R)-2-(2,2-difluoroethyl)-3-methyl-2,3,4,9-tetrahydro-1H-pyrido[3,4-b]indol-1-yl)-3,5-difluorophenyl)-2,8-diazaspiro[4.5]decan-2-yl)-2-oxoethyl)-1-oxo-3,5,6,7-tetrahydropyrrolo[3,4-f]isoindol-2(1H)-yl)piperidine-2,6-dione], the DC50 was < 10 nM.

For the molecule `O=C1CCC(N2C(=O)c3cc4c(cc3C2=O)CN(CC(=O)N2CCC3(CC2)CCN(c2ccc([C@@H]5c6ccc(O)cc6CC[C@@H]5c5ccc(F)cc5)cc2)C3)C4)C(=O)N1` (stereo partly drawn) [E 186, 2-(2,6-dioxopiperidin-3-yl)-6-(2-(2-(4-((1R,2S)-2-(4-fluorophenyl)-6-hydroxy-1,2,3,4-tetrahydronaphthalen-1-yl)phenyl)-2,8-diazaspiro[4.5]decan-8-yl)-2-oxoethyl)-6,7-dihydropyrrolo[3,4-f]isoindole-1,3(2H,5H)-dione], the DC50 fell in the range of 10 to 100 nM.

For the molecule `O=C1CCC(N2C(=O)c3cc4c(cc3C2=O)CN(C2CN(CC3CCN(c5ccc([C@@H]6c7ccc(O)cc7CC[C@@H]6c6ccccc6)cc5)CC3)C2)C4)C(=O)N1` (stereo partly drawn) [E 272, 2-(2,6-dioxopiperidin-3-yl)-6-(1-((1-(4-((1R,2S)-6-hydroxy-2-phenyl-1,2,3,4-tetrahydronaphthalen-1-yl)phenyl)piperidin-4-yl)methyl)azetidin-3-yl)-6,7-dihydropyrrolo[3,4-f]isoindole-1,3(2H,5H)-dione], the DC50 is > 100 nM.

Turning to `O=C1CCC(N2C(=O)c3cc4c(cc3C2=O)CN(C2CCN(CC3CN(c5ccc([C@@H]6c7ccc(O)cc7CC[C@@H]6c6ccccc6)cc5)C3)CC2)C4)C(=O)N1` (stereo partly drawn) [E243, 2-(2,6-dioxopiperidin-3-yl)-6-(1-((1-(4-((1R,2S)-6-hydroxy-2-phenyl-1,2,3,4-tetrahydronaphthalen-1-yl)phenyl)azetidin-3-yl)methyl)piperidin-4-yl)-6,7-dihydropyrrolo[3,4-f]isoindole-1,3(2H,5H)-dione], the DC50 is < 10 nM.

In the case of `O=C1CCC(N2C(=O)c3cc4c(cc3C2=O)CN(c2ccc(CN3CC(Oc5ccc([C@@H]6c7ccc(O)cc7CC[C@@H]6c6ccccc6)cc5)C3)cn2)C4)C(=O)N1` (stereo partly drawn) [E328, 2-(2,6-dioxopiperidin-3-yl)-6-(5-((3-(4-((1R,2S)-6-hydroxy-2-phenyl-1,2,3,4-tetrahydronaphthalen-1-yl)phenoxy)azetidin-1-yl)methyl)pyridin-2-yl)-6,7-dihydropyrrolo[3,4-f]isoindole-1,3(2H,5H)-dione], the DC50 was > 100 nM.

As to `C[C@@H]1Cc2cc(O)ccc2[C@@H](c2ccc(N3CCC(C(=O)N4CC(CN5Cc6cc7c(cc6C5)C(=O)N(C5CCC(=O)NC5=O)C7=O)C4)CC3)cc2F)N1CC(F)F` (stereo partly drawn) [E 349, 6-((1-(1-(4-((1S,3R)-2-(2,2-difluoroethyl)-6-hydroxy-3-methyl-1,2,3,4-tetrahydroisoquinolin-1-yl)-3-fluorophenyl)piperidine-4-carbonyl)azetidin-3-yl)methyl)-2-(2,6-dioxopiperidin-3-yl)-6,7-dihydropyrrolo[3,4-f]isoindole-1,3(2H,5H)-dione], the DC50 is > 100 nM.

Consider `C[C@@H]1Cc2c([nH]c3ccccc23)[C@@H](c2c(F)cc(N3CCC(CN4CC(N5Cc6cc7c(cc6C5)C(=O)N(C5CCC(=O)NC5=O)C7=O)C4)CC3)cc2F)N1CC(F)F` (stereo partly drawn) [E 50, 6-(1-((1-(4-((1R,3R)-2-(2,2-difluoroethyl)-3-methyl-2,3,4,9-tetrahydro-1H-pyrido[3,4-b]indol-1-yl)-3,5-difluorophenyl)piperidin-4-yl)methyl)azetidin-3-yl)-2-(2,6-dioxopiperidin-3-yl)-6,7-dihydropyrrolo[3,4-f]isoindole-1,3(2H,5H)-dione], for which the DC50 was > 100 nM.

As for `O=C1CCC(N2C(=O)c3cc4c(cc3C2=O)CN(Cc2cnc(N3CC(Oc5ccc([C@@H]6c7ccc(O)cc7CC[C@@H]6c6ccccc6)cc5)C3)cn2)C4)C(=O)N1` (stereo partly drawn) [E 342, 2-(2,6-dioxopiperidin-3-yl)-6-((5-(3-(4-((1R,2S)-6-hydroxy-2-phenyl-1,2,3,4-tetrahydronaphthalen-1-yl)phenoxy)azetidin-1-yl)pyrazin-2-yl)methyl)-6,7-dihydropyrrolo[3,4-f]isoindole-1,3(2H,5H)-dione], the DC50 was > 100 nM.

For `C[C@@H]1Cc2c([nH]c3ccccc23)[C@@H](c2c(F)cc(N3CCC4(CCN(CC5Cc6cc7c(cc6C5)C(=O)N(C5CCC(=O)NC5=O)C7=O)CC4)CC3)cc2F)N1CC(F)(F)F` (stereo partly drawn) [E 231, 6-((9-(3,5-difluoro-4-((1R,3R)-3-methyl-2-(2,2,2-trifluoroethyl)-2,3,4,9-tetrahydro-1H-pyrido[3,4-b]indol-1-yl)phenyl)-3,9-diazaspiro[5.5]undecan-3-yl)methyl)-2-(2,6-dioxopiperidin-3-yl)-6,7-dihydrocyclopenta[f]isoindole-1,3(2H,5H)-dione], the DC50 is > 100 nM.

Take `C[C@@H]1Cc2c([nH]c3ccccc23)[C@H](c2c(F)cc(CN3CCC4(CCC(CN5Cc6cc7c(cc6C5)C(=O)N(C5CCC(=O)NC5=O)C7=O)CC4)CC3)cc2F)N1CC(F)F` (stereo partly drawn) [E 381, 6-((3-(4-((1S,3R)-2-(2,2-difluoroethyl)-3-methyl-2,3,4,9-tetrahydro-1H-pyrido[3,4-b]indol-1-yl)-3,5-difluorobenzyl)-3-azaspiro[5.5]undecan-9-yl)methyl)-2-(2,6-dioxopiperidin-3-yl)-6,7-dihydropyrrolo[3,4-f]isoindole-1,3(2H,5H)-dione]: the DC50 is > 100 nM.

For the molecule `O=C1CCC(N2C(=O)c3cc4c(cc3C2=O)CN(CC(=O)N2CCC3(CC2)CN(c2ccc([C@@H]5c6ccc(O)cc6CC[C@@H]5c5ccccc5)cc2)C3)C4)C(=O)N1` (mixture of isomers) [E 10, Rac-2-(2,6-dioxopiperidin-3-yl)-6-(2-(2-(4-((1R,2S)-6-hydroxy-2-phenyl-1,2,3,4-tetrahydronaphthalen-1-yl)phenyl)-2,7-diazaspiro[3.5]nonan-7-yl)-2-oxoethyl)-6,7-dihydropyrrolo[3,4-f]isoindole-1,3(2H,5H)-dione], the DC50 was 10 to 100 nM.

Still in this experiment, the particulars now being: compounds 16 hours, Table A does not say whether T47D or MCF7, read-out: Potency (DC50).
On to `O=C1CCC(N2C(=O)c3cc4c(cc3C2=O)CC2(C4)CN(C(=O)C3CCN(c4ccc([C@@H]5c6ccc(O)cc6CC[C@@H]5c5ccccc5)cc4)CC3)C2)C(=O)N1` (stereo partly drawn) [E 501, 2′-(2,6-dioxopiperidin-3-yl)-1-(1-(4-((1R,2S)-6-hydroxy-2-phenyl-1,2,3,4-tetrahydronaphthalen-1-yl)phenyl)piperidine-4-carbonyl)-5′,7′-dihydro-1′H-spiro[azetidine-3,6′-cyclopenta[f]isoindole]-1′,3′(2′H)-dione], for which the DC50 is > 100 nM.

In the case of `C[C@@H]1Cc2cc(O)ccc2[C@@H](c2ccc(C(=O)N3CCC4(CCC(CN5Cc6cc7c(cc6C5)C(=O)N(C5CCC(=O)NC5=O)C7=O)CC4)CC3)cc2)N1CC(F)F` (stereo partly drawn) [E 454, 6-((3-(4-((1R,3R)-2-(2,2-difluoroethyl)-6-hydroxy-3-methyl-1,2,3,4-tetrahydroisoquinolin-1-yl)benzoyl)-3-azaspiro[5.5]undecan-9-yl)methyl)-2-(2,6-dioxopiperidin-3-yl)-6,7-dihydropyrrolo[3,4-f]isoindole-1,3(2H,5H)-dione], the half-maximal degradation concentration (DC50) was > 100 nM.

The record behind these values is patent US20240190880A1 (THE REGENTS OF THE UNIVERSITY OF MICHIGAN, priority 2021, published 2024).
